Data taken from US20120107323A1, “KINASE PROTEIN BINDING INHIBITORS” (University of Florida, priority 2009, published 2012).

Legend:
[1] = system: Miapaca-2 orthotopic xenografts; test: Orthotopic pancreatic xenograft, Miapaca-2; type: in vivo, mice
Text: For the orthotopic model of pancreatic cancer, the University of Florida IACUC approved the following protocol (IACUC Study #2000801506). The pancreatic cancer cell lines, Mia paca-2 and Panc-1 cells were stably transfected using luciferase-RFP (red fluorescent protein) reporter gene for in vivo imaging of the xenografts. Following expansion and sorting of RFP positive cells, cells were expanded in culture and 5×10^6 tumor cells were implanted into the pancreas of 20 mice. For intra-pancreatic implantation of cells, mice were anesthetized with Isoflurane using the ACS provided and maintained rodent anesthesia machine. Under sterille surgical conditions, via 1.0 cm incision of the skin, abdominal wall and peritonium, the spleen was retracted and cells were injected in […] into the tail of the pancreas using a 29-gauge needle. The abdominal wall and peritoneum was sutured using 5.0 absorbable surgical sutures and the skin was closed with medical glue (dermabond). Postoperative analgesia was 0.05 mg/kg of buprenorphine subcutaneously per 8-12 hours postoperatively.
Mice were hand restrained prior to intraperitoneal injections. Mice were euthanized 6 weeks after tumor innoculation and tumor and tissue collected. As described below, mice were imaged weekly with the IVIS lumina imager and tumor size was estimated by the bioluminescent signal. […]

[2] = system: IGF-1R+/+ and −/− MEFs; test: MTT assay on IGF-1R wildtype and null fibroblasts; type: cell-based, mouse
Procedure: (§1) Cell viability (MTT) and CFSE Proliferation assay: Cells were plated in 96-well plates and let adhere overnight. After cell treatment, cell viability was measured by 3-(4,5-dimethylthiazol-2-yl)-2,5-diphenyl tetrazolium bromide (MTT) assay (CellTiter 96® Aqueous, Promega, Madison, Wis.).
Cell proliferation assay: Cell proliferation assay (Promega) using CellTiter 96 aqueous one solution was performed by adding a small amount of the One Solution Reagent directly to culture wells, incubating for 1-4 hours and then recording absorbance at 490 nm with a spectrophotometric plate reader. The quantity of formazan product as measured by the amount of 490 nm absorbance was directly proportional to the number of living cells in culture.
(§2) Cell viability and detachment assays: After cells were treated with siRNA transfection, cell viability was measured by 3-(4,5-dimethylthiazol2-yl)-2,5-diphenyl tetrazolium bromide (MTT) assay (CellTiter 96® AQueous, Promega, Madison, Wis.). Briefly, 20 μl of the tetrazolium compound was added to each well. The cells were then incubated at 37° C. for 1 h. The plate was read at 490 nm with a plate reader to determine the viability. In detachment assays, detached and attached cells were harvested separately and counted in a hemocytometer. The percentage of detachment was calculated by dividing the number of detached cells by the total number of cells. Apoptosis assays: After treatment, attached and detached cells were collected, counted and prepared for terminal uridine deoxynucleotidyl transferase (TUNEL) assay by utilizing an APO-BRDU kit (BD Pharmingen, San Diego, Calif.) according to the manufacturer's instructions. Stained cells were analyzed with a fluorescence-activated cell sorting-Calibur flow cytometer (BD Biosciences). Calculation of the percentage of apoptotic cells in the sample was completed with CellQuest software (BD Biosciences). Apoptotic cells were also analyzed by Hoechst staining. Hoechst 33342 ([…]) was added to the fixed cells and the specimens were mounted on glass coverslips. The slides were viewed under the Zeiss microscope for apoptotic nuclei. The percent of apoptotic cells was calculated as the ratio of apoptotic cells to total number of cells.

[3] = system: C8161 melanoma cells; test: Cell viability (MTT), C8161; type: cell-based, human
Procedure: as §1, §2
In addition, the effect of INT2-31 on cell viability of esophageal, pancreatic and breast cancer cell lines was analyzed and the IC50 value for each cell line was determined, as shown in Table 1. […] Similar to melanoma results, INT2-31 inhibits viability more in cancer cells compared to normal cells. Sensitivity of the cells to INT2-31 varied and directly correlated to the FAK and IGF-1R expression level of the cells.
To determine the effect on melanoma cell viability, three human melanoma cell lines were exposed to increasing doses of INT2-31 for 72 h and the results compared to human melanocytes. […] The effects of INT2-31 varied in the three cell lines and was possibly related to constitutive FAK and IGF-1R activation with the least sensitive cell line (SK-MEL-28) having the greatest expression of FAK and IGF-1R.

## CSc1ncnc2c1ccn2C1O[C@H](COP(=O)(O)O)[C@@H](O)[C@H]1O (stereo partly drawn) [INT2-31, 4-(Methylthio)-7-(5-O-phosphono-D-ribofuranosyl)-{7H-Pyrrolo[2,3-d]pyrimidine}]
[1]; Miapaca2, daily intraperitoneal 50 mg/kg, 21 days
  growth of the orthotopic pancreatic xenografts: sufficiently reduced the growth
[1]; both orthotopic models
  side effects as measured by body weights and appearances of the animals: without any significant side effects
[2]; 0.05 μM, 72-hour treatment
  proliferation of IGF-1R+/+ fibroblast cells: reduced the proliferation
  proliferation of IGF-1R−/− cells: no effect
[2]; MTT, p<0.05
  effect on IGF-1R wildtype compared to null fibroblasts: significantly less sensitive
[3]; C8161, MTT
  cell viability (in words): inhibited cell viability in a dose-dependent manner
[3]; Homo sapiens, C8161, 72 hours, read-out: IC50 of INT2-31, cell viability
  IC50: 500 nM
[3]; MTT, FAK shRNA1 knockdown
  sensitivity of C8161 cells expressing FAK shRNA compared to parental and mock transfected cells: significantly less sensitive
